Like-named read-outs stand apart in the source and are kept apart here. Marks after values point to notes of the source that are not given here.
What was measured:
[1] = Plasma and tumor levels by HPLC/MS in mice bearing SW620 xenograft; format: in vivo; conditions: for concentration at 0.5 h / concentration at 6 h / concentration at 24 h: mouse, intraperitoneal
Experimental: In a parallel study plasma and tumor levels of the compound of formula 1 were measured by an HPLC/MS assay. In addition the degree of inhibition of tumor PARP catalytic activity was assessed using P^32-NAD incorporation into poly-ADP-ribose polymer in homogenates from SW620 tumors of treated animals. […] PARP catalytic activity was inhibited by 50% at 6 h and by 25% at 24 h.

[2] = system: SW620 human colon carcinoma xenograft; assay: In vivo antitumor efficacy with temozolomide, SW620 xenograft; conditions: SW620
PARP [3] = assay: Tumor PARP catalytic activity, 32P-NAD incorporation in SW620 tumor homogenates of treated animals; format: in vivo, mice
Experimental: Tumours were excised and were snap frozen in liquid nitrogen and stored at −80° C. until homogenised for analysis. The specimen was defrosted on ice and the wet weight documented. The tissue was homogenised using a Pro 2000 instrument (Pro Scientific Inc, Monroe, Conn., USA) in 3 volumes (i.e. 1 mg plus 3 μl isotonic buffer −7 mM Hepes, 26 mM KCl, 0.1 mM dextran, 0.4 mM EGTA, 0.5 mM MgCl2, 45 mM sucrose, pH 7.8), giving a homogenate with an overall dilution of 1 in 4. The homogenate was kept on ice throughout the process, and homogenisation was performed in 10 second bursts to prevent undue warming of the sample. Prior to assay the samples were further diluted with isotonic buffer where necessary to give a final dilution of 1 in 40 for [^32P]NAD incorporation assay or 1 in 1000 for immunoblot aaasy.
Briefly, cells were suspended in hypotonic buffer (9 mM HEPES pH 7.8, 4.5% (v/v) dextran, 4.5 mM MgCl2 and 5 mM DTT) at 1.5×10^7/ml on ice for 30 minutes then 9 vol of isotonic buffer (40 mM HEPES pH 7.8, 130 mM KCl, 4% (v/v) dextran, 2 mM EGTA, 2.3 mM MgCl2, 225 mM sucrose and 2.5 mM DTT) was added. The reaction was started by adding 300 μl cells to 100 μl 300 μM NAD^+ containing [^32P]-NAD^+ (Amersham, UK), and terminated by the addition of 2 ml ice cold 10% (w/v) TCA+10% (w/v) sodium pyrophosphate. After 30 min on ice the precipitated ^32P—labelled ADP-ribose polymers were filtered on Whatman GC/C filters (Whatman Intemational Ltd, Kent, UK), washed 5 times with 1% (v/v) TCA/1% (v/v) sodium pyrophosphate, dried and counted. PARP inhibitory IC50 values were calculated from computer-fitted curves (GraphPad Software, Inc., San Diego, Calif.).
Tumour homogenates were assayed in a similar manner; however, the homogenisation process introduces sufficient DNA damage to maximally stimulate PARP activity and oligonucleotide was not therefore required. Results were expressed in terms of pmol PAR former per mg tumour.
Preparation of Tumour/Tissue Samples • 1. The frozen tumour samples are weighed. • 2. 3 volumes (i.e. 3 μl solution added for each 1 mg tissue) of isotonic buffer plus DTT is added to the tumour sample. This is stored on ice until and during homogenisation. • 3. The sample is homogenised on ice within a Class II cabinet for 10-second bursts until no detectable macroscopic pieces of tissue are visible. • 4. Sufficient volume of the homogenate is diluted 1 in 10 with isotonic buffer plus DTT to provide an overall dilution of 1 in 40 from the original sample. A final volume of 3 ml is sufficient for triplicate sampling and a subsequent protein assay. • 5. The diluted homogenate is stored on ice and assayed within one hour as below.
PARP Assay of Tumour/Tissue Samples • 1. ^32P 600 μM NAD solution is prepared fresh on the day of experiment as detailed above. Oligonucleotide stock is removed from storage and defrosted. • 2. Water bath is warmed to 26° C. and set to agitate at 70 oscillations per minute.
3. Reaction test tubes are set up as per table A for the QC samples and as per table B for the homogenate.
• 4. Each QC sample is assayed in triplicate, with T0, +oligo and −oligo samples ×3. (Total of 9 tubes per sample, if low cell counts −oligo samples are omitted.) Homogenates are also assayed in triplicate, with T0 and reaction samples ×3. (Total 6 tubes per sample). • 5. 2 ml ice cold 10% TCA+10% NaPPi is added to the T0 tubes prior to addition of homogenate or cells, to correct for non-specific binding of radio-label to the filter. • 6. Reaction test tubes homogenates and QC cells are warmed in the water bath to 26° C. for 7 minutes. • 7. Each preparation is vortexed briefly and the reaction is started by adding 300 μl of this to each reaction tube. • 8. The reaction is stopped exactly 6 minutes after addition of homogenate by adding 2 ml of ice cold 10% TCA+10% NaPPi and vortexing. • 9. The tube is then incubated on ice for at least one hour prior to filtration. • 10. […]

LoVo xenografts = assay: In vivo antitumor efficacy with irinotecan, LoVo xenograft; set-up: species or system mice; conditions: irinotecan 25 mg/kg i.p. + 0.5 mg/kg i.p. (glucuronate salt), once weekly × 3
Source text: In no combination study was antagonism observed.

PARP [4] = assay: Inhibition of cellular NAD consumption in P388 mouse leukemia cells after PARP activation; format: cell-based; conditions: PARP activated by MNNG, hydrogen peroxide or gamma irradiation, data not shown
Source text: After DNA damage, cellular NAD is rapidly incorporated into poly-ADP-ribose polymer.

PARP [5] = assay: Inhibition of MNNG-induced cellular NAD depletion and poly-ADP-ribose polymer formation in A549 cells; format: cell-based; conditions: for NAD (% DMSO) / Polymer (% MNNG): MNNG 25 μM

## CNCc1ccc(-c2[nH]c3cc(F)cc4c3c2CCNC4=O)cc1 [compound of formula 1, 8-fluoro-2-{4-[(methylamino)methyl]phenyl}-1,3,4,5-tetrahydro-6H-azepino[5,4,3-cd]indol-6-one]
[1]; 1.0 mg/kg i.p. as phosphate salt, 24 h
  Tumor compound of formula 1: BLQ^c
[1]; 1.0 mg/kg, 6 hours
  plasma concentrations: barely detectable
[1]; 10 mg/kg i.p. as phosphate salt, 0.5 h
  Plasma compound of formula 1: 1867 + 102 ng/mL
[1]; 10 mg/kg, 24 h
  plasma concentrations: barely detectable
[1]; 10 mg/kg, all times up to 24 h
  tumor levels: > 200 ng/mL
[1]; plasma, 1 mg/kg, Plasma compound of formula 1, 1.0 mg/kg i.p. as phosphate salt, 0.5 h
  concentration at 0.5 h: 107 ± 32.3 ng/mL
[1]; plasma, 1 mg/kg, Plasma compound of formula 1, 1.0 mg/kg i.p. as phosphate salt
  concentration at 6 h: 6.64 ± 1.55 ng/mL
[1]; plasma, 1 mg/kg, Plasma compound of formula 1, 1.0 mg/kg i.p. as phosphate salt, 24 h
  concentration at 24 h: 1.85 ± 0.14 ng/mL
[1]; plasma, 10 mg/kg, Plasma compound of formula 1, 10 mg/kg i.p. as phosphate salt
  concentration at 6 h: 64.4 ± 11 ng/mL
[1]; plasma, 10 mg/kg, Plasma compound of formula 1, 10 mg/kg i.p. as phosphate salt, 24 h
  concentration at 24 h: 2.34 ± 0.33 ng/mL
[1]; plasma, 10 mg/kg, read-out: plasma concentrations
  concentration at 6 h: 30 ng/mL
[1]; tumor, 1 mg/kg, Tumor compound of formula 1, 1.0 mg/kg i.p. as phosphate salt, 0.5 h
  concentration at 0.5 h: 98.3 ± 25.2 ng/g
[1]; tumor, 1 mg/kg, Tumor compound of formula 1, 1.0 mg/kg i.p. as phosphate salt
  concentration at 6 h: 49.5 ± 2.12 ng/g
[1]; tumor, 10 mg/kg, Tumor compound of formula 1, 10 mg/kg i.p. as phosphate salt, 0.5 h
  concentration at 0.5 h: 767 ± 55.6 ng/g
[1]; tumor, 10 mg/kg, Tumor compound of formula 1, 10 mg/kg i.p. as phosphate salt
  concentration at 6 h: 523 ± 37.3 ng/g
[1]; tumor, 10 mg/kg, Tumor compound of formula 1, 10 mg/kg i.p. as phosphate salt, 24 h
  concentration at 24 h: 167 ± 54.2 ng/g
[2]; 0.1 mg/kg i.p. glucuronate salt + temozolomide 68 mg/kg p.o., QD×5
  Enhancement (%): 28%
[2]; 1.0 mg/kg i.p. glucuronate salt + temozolomide 68 mg/kg p.o., QD×5
  Enhancement (%): 100%
[2]; temozolomide 200 mg/kg oral + compound 0.1 mg/kg i.p., single dose
  Enhancement (%): 50^e %
[2]; temozolomide 200 mg/kg oral + compound 0.3 mg/kg i.p., single dose
  Enhancement (%): 80^e %
[2]; temozolomide 200 mg/kg oral + compound 1 mg/kg i.p., single dose
  Enhancement (%): 107^e %
[2]; temozolomide 200 mg/kg oral + compound 5 mg/kg i.p., single dose
  Enhancement (%): 111^e,f %
PARP [3]; 1.0 mg/kg, 6 h
  PARP catalytic activity inhibited: 50%
PARP [3]; 1.0 mg/kg, 24 h
  PARP catalytic activity inhibited: 25%
PARP [3]; 10 mg/kg, 6 h
  PARP catalytic activity inhibited: 90%
PARP [3]; 10 mg/kg, 24 h
  PARP catalytic activity inhibited: 75%
LoVo xenografts
  Enhancement (%): 86%
PARP [4]
  inhibition of PARP catalytic activity (cellular NAD consumption): inhibits PARP catalytic activity
PARP [5]; 50 nM
  inhibition of MNNG-induced NAD depletion: 93%
  inhibition of poly-ADP-ribose polymer formation: 95%
PARP [5]; compound 0.0005 μM
  NAD (% DMSO): 77 % DMSO
  Polymer (% MNNG): 40 % MNNG
PARP [5]; compound 0.005 μM
  NAD (% DMSO): 95 % DMSO
  Polymer (% MNNG): 11 % MNNG
PARP [5]; compound 0.05 μM
  NAD (% DMSO): 96 % DMSO
  Polymer (% MNNG): 5 % MNNG
PARP [5]; compound 0.1 μM
  NAD (% DMSO): 97 % DMSO
  Polymer (% MNNG): 4 % MNNG
PARP [5]; compound 0.4 μM
  NAD (% DMSO): 97 % DMSO
  Polymer (% MNNG): 4 % MNNG
PARP [5]; MNNG-induced, 5 nM
  inhibition of cellular poly-ADP-ribose formation: 89%

Reference: US20060074073A1, “Therapeutic combinations comprising poly (ADP-ribose) polymerases inhibitor” (AGOURON PHARMACEUTICALS, INC., priority 2004, published 2006)
